Measurements taken from patent US20210292330A1, “PYRROLIDINE-FUSED HETEROCYCLES” (Erasca, Inc., priority 2020, published 2021).

Molecular target: T1, KRAS 4B G12C protein (Homo sapiens, UniProt P01116, G12C)
T1 construct: This protein contained 188 amino acids in total, including an N-terminal 6-Histidine tag; made in house; host or cells: E. coli BL21
Assay: In vitro covalent adduct formation (CAF) assay by LC-MS
Type: binding
Conditions: compound 10 μM, protein 5 μM, 22° C., percentage of protein bound by the compound
Summary of the method: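 Recombinant His-TEV-tagged KRAS 4B G12C (residues 1-169, E. coli) at 5 μM in Tris-buffered saline pH 7.4 was incubated with 10 μM compound (4% DMSO) at 22° C. for one hour, sampling over time. Intact-mass LC-MS free:adduct ratios gave % protein bound; duplicates.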

Compound	CAF (10 minutes/60 minutes) at 10 micromolar: 10 minutes	CAF (10 minutes/60 minutes) at 10 micromolar: 60 minutes
C=CC(=O)N1CC2CC(=O)CC(C1)N2c1nc(O[C@@H]2CN(C)C[C@H]2OC)nc2c1CN(C1CCc3ccccc31)C2 (stereo partly shown) [1-252]	0%/ 0%	0%/ 0%
C=CC(=O)N1CCN(c2nc(OC[C@@H]3CCCN3C)nc3c2CN(Cc2c(Cl)cccc2OC(F)F)C3)CC1 [1-94]	0%/ 0%	0%/ 0%
C=CC(=O)N1CCN(c2nc(OC[C@@H]3CCCN3C)nc3c2CN(C2CC(C)(C)c4ccccc42)C3)C[C@@H]1CC#N (stereo partly shown) [1-169]	63%	70%
C=CC(=O)N1CCN(c2nc(OC[C@@H]3CCCN3C)nc3c2CN(Cc2cc(Cl)ccc2F)C3)C[C@@H]1CC#N [1-49]	81%	97%
C=CC(=O)N1CCN(c2nc(OC[C@@H]3CCCN3C)nc3c2CN(Cc2cnccc2Cl)C3)C[C@@H]1CC#N [1-119]	66%	94%
C=CC(=O)N1CCN(c2nc(OCC3CCCC3)nc3c2CN(Cc2c(F)cccc2OC)C3)C[C@@H]1CC#N [1-66]	1%	14%
C=CC(=O)N1CCN(c2nc(OC[C@@H]3CCCN3C)nc3c2CN(C(=O)c2cc(O)ccc2C)C3)[C@@H](C)C1 [1-23, 1-((S)-4-(6-(5-hydroxy-2-methylbenzoyl)-2-(((S)-1-methylpyrrolidin-2-yl)methoxy)-6,7-dihydro-5H-pyrrolo[3,4-d]pyrimidin-4-yl)-3-methylpiperazin-1-yl)prop-2-en-1-one]	9%	35%
C=C(F)C(=O)N1CCN(c2nc(OC[C@@H]3CCCN3C)nc3c2CN(C2CCc4ccccc42)C3)C[C@@H]1CC#N (stereo partly shown) [1-139]	0%	5%
C=CC(=O)N1CCN(c2nc(OC[C@@H]3CCCN3C)nc3c2CN(c2cccc4cccc(C)c24)C3)C[C@@H]1CC(F)(F)F [1-48]	0%	1%
C=CC(=O)N1CCN(c2nc(OC3CC3)nc3c2CN(C2CCc4ccccc42)C3)C[C@@H]1CC#N (stereo partly shown) [1-152]	2%	19%
C=C(F)C(=O)N1CCN(c2nc(OC[C@@H]3CCCN3C)nc3c2CN(Cc2cc(O)ccc2Cl)C3)C[C@@H]1CC#N [1-87]	97%	99%
C=CC(=O)N1CCN(c2nc(OC[C@@H]3CCCN3C)nc3c2CN(Cc2cc(O)ccc2Cl)C3)[C@@H](C)C1 [1-43]	97%	98%
C=CC(=O)N1CCN(c2nc(OC[C@@H]3CCCN3C)nc3c2CN(Cc2cc(Cl)ccc2Cl)C3)C[C@@H]1CC#N [1-28]	94%	98%
C=CC(=O)N1CCN(c2nc(OC)nc3c2CN(Cc2cc(OC)ccc2Cl)C3)C[C@@H]1CC#N [1-74]	2%	21%
C=CC(=O)N1CCN(c2nc(OC[C@@H]3CCCN3C)nc3c2CN(C(C)c2cc(O)ccc2C)C3)[C@@H](C)C1 (stereo partly shown) [1-54]	70%	77%
C=CC(=O)N1CCN(c2nc(OCCN3CCOCC3)nc3c2CN(Cc2cc(O)ccc2Cl)C3)C[C@@H]1CC#N [1-134]	98%/ 98%	98%/ 98%
C=C(F)C(=O)N1CCN(c2nc(OC[C@@H]3CCCN3C)nc3c2CN(C2CCc4cccc(Cl)c42)C3)C[C@@H]1CC#N (stereo partly shown) [1-153]	46%	78%
C=CC(=O)N1C[C@H](C)N(c2nc(OC[C@@H]3CCCN3C)nc3c2CN(Cc2cc(O)ccc2F)C3)C[C@H]1C [1-32]	7%	41%
C=CC(=O)N1CCN(c2nc(OCCN3CCOCC3)nc3c2CN(Cc2cc(O)ccc2C)C3)[C@@H](C)C1 [1-123]	0%	2%
C=C(F)C(=O)N1CCN(c2nc(OC[C@@H]3CCCN3C)nc3c2CN(C2CCCc4cccc(Cl)c42)C3)C[C@@H]1CC#N (stereo partly drawn) [1-126, 2-[(2S)-4-[6-(8-chloro-1,2,3,4-tetrahydronaphthalen-1-yl)-2-{[(2S)-1-methylpyrrolidin-2-yl]methoxy}-5H,7H-pyrrolo[3,4-d]pyrimidin-4-yl]-1-(2-fluoroprop-2-enoyl)piperazin-2-yl]acetonitrile]	53%	88%
C=CC(=O)N1C2COCC1CN(c1nc(OC[C@@H]3CCCN3C)nc3c1CN(Cc1cc(OC)ccc1Cl)C3)C2 [1-114]	0%/ 0%	0%/ 0%
C=CC(=O)N1CCN(c2nc(OC[C@@H]3CCCN3C)nc3c2CN(Cc2c(Cl)cccc2OC(F)F)C3)C[C@H]1C [1-105]	0%/ 0%	0%/ 0%
C=CC(=O)N1CCN(c2nc(OC[C@@H]3CCCN3C)nc3c2CN(Cc2cc(F)ccc2Cl)C3)C[C@@H]1CC#N [1-25]	78%	93%
C=CC(=O)N1CCN(c2nc(OC[C@@H]3CCCN3C)nc3c2CN(C2CCc4ccccc42)C3)C[C@@H]1C(N)=O (stereo partly drawn) [1-159, (2R)-1-acryloyl-4-(6-(2,3-dihydro-1H-inden-1-yl)-2-(((S)-1-methylpyrrolidin-2-yl)methoxy)-6,7-dihydro-5H-pyrrolo[3,4-d]pyrimidin-4-yl)piperazine-2-carboxamide]	10%	19%
C=CC(=O)N1CCN(c2nc(Oc3cccc4c3CCN(C)C4)nc3c2CN(C2CCc4ccccc42)C3)C[C@@H]1CC#N (stereo partly shown) [1-171]	9%	29%

The remaining lines, values ahead:

CAF (10 minutes/60 minutes) at 10 micromolar: 10 minutes	CAF (10 minutes/60 minutes) at 10 micromolar: 60 minutes	Compound
0%	1%	C=CC(=O)N1CCN(c2nc(OC[C@@H]3CCCN3C)nc3c2CN(C2CCc4ccccc42)C3)C[C@@H]1Cn1ccnc1 (stereo partly shown) [1-219]
72%	93%	C=CC(=O)N1CCN(c2nc(OC[C@@H]3CCCN3C)nc3c2CN(Cc2cc(O)c(C)cc2Cl)C3)C[C@@H]1CC#N [1-323]
86%	94%	C=CC(=O)N1CCN(c2nc(OC[C@@H]3CCCN3C)nc3c2CN(Cc2ccccc2CCC)C3)C[C@@H]1CC#N [1-206]
0%	2%	C=CC(=O)N1CCN(c2nc(OC[C@@H]3CCCN3C)nc3c2CN(C2CCc4ccccc42)C3)C[C@@H]1CS(C)(=O)=O (stereo partly shown) [1-200]
18%	54%	C=CC(=O)N1CC2(C1)CN(c1nc(OC[C@@H]3CCCN3C)nc3c1CN(C1CCc4ccccc41)C3)CCO2 (stereo partly shown) [1-216]
2%	22%	C=C(F)C(=O)N1CCN(c2nc(OC[C@@H]3CCCN3C)nc3c2CN(Cc2cc(O)c(C)cc2Cl)C3)C[C@@H]1CC#N [1-329]
15%	18%	C=CC(=O)N1CCN(c2nc(OC[C@@H]3CCCN3C3CC3)nc3c2CN(C2CCc4ccccc42)C3)C[C@@H]1CC#N (stereo partly drawn) [1-198, 2-((2S)-1-acryloyl-4-(2-(((S)-1-cyclopropylpyrrolidin-2-yl)methoxy)-6-(2,3-dihydro-1H-inden-1-yl)-6,7-dihydro-5H-pyrrolo[3,4-d]pyrimidin-4-yl)piperazin-2-yl)acetonitrile]
31%	73%	C=C(F)C(=O)N1CCN(c2nc(OC[C@@H]3CCCN3C)nc3c2CN(Cc2c(Cl)ccc4ccccc24)C3)C[C@@H]1CC#N [1-254]
94%	95%	C=CC(=O)N1CCN(c2nc(OC[C@@H]3CCCN3C)nc3c2CN(Cc2c(Cl)ccc4ccccc24)C3)C[C@@H]1CC#N [1-236]
0%/ 0%	0%/ 0%	C=CC(=O)N1CCN(c2nc(OC[C@@H]3CCCN3C)nc3c2CN(C2CCc4ccccc42)C3)C[C@@H]1C[S+](C)[O-] (stereo partly shown) [1-209]
63%	93%	C=CC(=O)N1CCN(c2nc(OC[C@@H]3CCCN3C)nc3c2CN(Cc2c(Cl)c(F)cc4[nH]ncc24)C3)C[C@@H]1CC#N [1-183]
16%	61%	C=C(F)C(=O)N1CCN(c2nc(OC[C@@H]3CCCN3C)nc3c2CN(Cc2nc(NC)ccc2Cl)C3)C[C@@H]1CC#N [1-361]
95%/ 95%	95%/ 95%	C=CC(=O)N1CCN(c2nc(OC[C@@H]3CCCN3C)nc3c2CN(Cc2c(Cl)ccc(O)c2C)C3)C[C@@H]1CC#N [1-312]
